Values belong to the compound of their own block, whether it stands above or below them.
Legend:
[1] = test system: P23H, E181K and T17M rhodopsin; settings: cells; cited from earlier work
[2] = test system: opsin; settings: cited from earlier work
[3] = target: wild-type opsin (Homo sapiens, UniProt P08100); experiment: 9-cis-retinal binding to opsin; settings: 3.0 μM purified wild-type opsin
[4] = test system: P23H rhodopsin; settings: P23H knock-in mice; cited from earlier work
[5] = test system: P23H Rho transgenic rats; settings: cited from earlier work

SMILES: CC(=C/C(=O)O)/C=C/C=C(\C)C1C=C2C(C)(C)CCCC2(C)O1 (stereo not drawn) [13-cis-5,8-ERA]
folding and transport of rhodopsin mutants [1]: more effective in promoting the folding and transport of the P23H and E181K mutations than it was for the T17M mutation | competition with 9-cis-retinal for binding to opsin [2]: appeared to compete with 9-cis-retinal for binding to opsin

concentration at which opsin was saturated [3]: 5 µM
SMILES: CC1=C(/C=C/C(C)=C\C=C\C(C)=C\C=O)C(C)(C)CCC1 [9-cis-retinal]

SMILES: CN(C)C(=N)N=C(N)N [metformin]
transport of P23H rhodopsin to outer segments [4]: increased transport of P23H rhodopsin to outer segments | retinal degeneration [5]: increased retinal degeneration

Reference: article PMC6910612 (Translational Vision Science & Technology, 2019)
